# Results as given in patent publication US8716312B2, “Inhibitors of diacylglycerol acyltransferase” (Merck Sharp & Dohme Corporation, priority 2008, dated 2014).
# Target: T1, human DGAT1 enzyme (Homo sapiens, UniProt O75907)
# T1 sequence (O75907 1-488): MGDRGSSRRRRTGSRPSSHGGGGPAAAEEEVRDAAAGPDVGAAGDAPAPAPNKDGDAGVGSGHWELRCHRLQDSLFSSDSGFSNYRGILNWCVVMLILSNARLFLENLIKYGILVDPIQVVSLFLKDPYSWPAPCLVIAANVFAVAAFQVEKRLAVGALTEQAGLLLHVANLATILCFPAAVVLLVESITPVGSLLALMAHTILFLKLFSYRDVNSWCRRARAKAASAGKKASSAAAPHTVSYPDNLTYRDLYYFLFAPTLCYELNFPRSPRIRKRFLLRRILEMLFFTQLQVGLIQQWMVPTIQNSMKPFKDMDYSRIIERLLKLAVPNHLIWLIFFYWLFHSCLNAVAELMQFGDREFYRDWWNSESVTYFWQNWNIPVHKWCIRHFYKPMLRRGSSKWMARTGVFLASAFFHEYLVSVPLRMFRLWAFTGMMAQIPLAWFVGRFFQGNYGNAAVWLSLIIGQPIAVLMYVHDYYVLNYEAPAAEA
# Experiment: in vitro DGAT1 inhibition assay (microsomes, [14C]-palmitoyl-CoA, SPA beads)
# Protocol: The in vitro assay to identify DGAT1 inhibitors uses human DGAT1 enzyme expressed in Sf9 insect cells prepared as microsomes. The reaction is initiated by the addition of the combined substrates 1,2-dioleoyl-sn-glycerol and [^14C]-palmitoyl-Co A and incubated with test compounds and microsomal membranes for 2 hours at room temperature. The assay is stopped by adding 0.5 mg wheat germ agglutinin beads in assay buffer with 1% Brij-35 and 1% 3-cholamidopropyldimethyl-ammonio-1-propane sulfonate. Plates are sealed with TopSeal and incubated for 18 hours to allow the radioactive triglyceride product to come into proximity with the bead. Plates are read on a TopCount instrument.
# Percent inhibition was calculated as the percent of (test compound inhibition minus non-specific binding) relative to (total binding minus non-specific binding). IC50 values were determined by curve fitting the data to a Sigmoidal dose-response in GraphPad Prism utilizing the following equation: Y=A+(B−A)/(1+10^((Log IC50−X))), where A and B are the bottom and top of the curve (highest and lowest inhibition), respectively, and X is the logarithm of concentration.
row,IC50 [nM],SMILES
1,11 to 100,"CC1CCCN(c2nc(C(F)(F)F)c(C(=O)Nc3ccc(N4CCN(c5ccccc5F)CC4)nc3)o2)C1 (stereo not shown) [Compound 164, N-(6-(4-(2-fluorophenyl)piperazin-1-yl)pyridin-3-yl)-2-(3-methylpiperidin-1-yl)-4-(trifluoromethyl)oxazole-5-carboxamide]"
2,101 to 500,"O=C(Nc1ccc(N2CCN(C(=O)C3CCc4ccccc4N3)CC2)nc1)c1oc(N2CCC(c3ccccc3)CC2)nc1C(F)(F)F (stereo not shown) [Compound 241, 2-(4-phenylpiperidin-1-yl)-N-(6-(4-(1,2,3,4-tetrahydroquinoline-2-carbonyl)piperazin-1-yl)pyridin-3-yl)-4-(trifluoromethyl)oxazole-5-carboxamide]"
3,101 to 500,"O=C(Nc1ccc(N2CCN(c3nc4ccccc4[nH]3)CC2)nc1)c1oc(N2CCC(c3ccccc3)CC2)nc1C(F)(F)F [Compound 237, N-(6-(4-(1H-benzo[d]imidazol-2-yl)piperazin-1-yl)pyridin-3-yl)-2-(4-phenylpiperidin-1-yl)-4-(trifluoromethyl)oxazole-5-carboxamide]"
4,101 to 500,"CC1CCCN(c2nc(C(F)(F)F)c(C(=O)Nc3ccc(N4CC(NC(=O)Nc5ccccc5F)C4)nc3)o2)C1 (stereo not shown) [Compound 221, N-(6-(3-(3-(2-fluorophenyl)ureido)azetidin-1-yl)pyridin-3-yl)-2-(3-methylpiperidin-1-yl)-4-(trifluoromethyl)oxazole-5-carboxamide]"
5,11 to 100,"Cc1cccc(Cl)c1NC(=O)N1CCCN(c2ccc(NC(=O)c3oc(N4CCCC(C)C4)nc3C(F)(F)F)cn2)CC1 (stereo not shown) [Compound 215, N-(2-chloro-6-methylphenyl)hexahydro-4-[5-[[[2-(3-methyl-1-piperidinyl)-4-(trifluoromethyl)-5-oxazolyl]carbonyl]amino]-2-pyridinyl]-1H-1,4-diazepine-1-carboxamide]"
6,101 to 500,"O=C(Nc1ccc(N2CCN(C(=O)Nc3ccccc3F)C(=O)C2)nc1)c1oc(N2CCC(c3ccccc3)CC2)nc1C(F)(F)F [Compound 248, N-(6-(4-(2-fluorophenylcarbamoyl)-3-oxopiperazin-1-yl)pyridin-3-yl)-2-(4-phenylpiperidin-1-yl)-4-(trifluoromethyl)oxazole-5-carboxamide]"
7,11 to 100,"CC1CCCN(c2nc(C(F)(F)F)c(C(=O)Nc3ccc(N4CCN(c5ccccc5O)CC4)nc3)o2)C1 (stereo not shown) [Compound 171, N-(6-(4-(2-hydroxyphenyl)piperazin-1-yl)pyridin-3-yl)-2-(3-methylpiperidin-1-yl)-4-(trifluoromethyl)oxazole-5-carboxamide]"
8,11 to 100,"CC1CCCN(c2nc(C(F)(F)F)c(C(=O)Nc3ccc(N4CCN(C(=O)[C@H](O)c5ccccc5)CC4)nc3)o2)C1 (stereo partly drawn) [Compound 198, N-(6-(4-((R)-2-hydroxy-2-phenylacetyl)piperazin-1-yl)pyridin-3-yl)-2-(3-methylpiperidin-1-yl)-4-(trifluoromethyl)oxazole-5-carboxamide]"
9,11 to 100,"O=C(Nc1ccc(N2CCN(C(=O)[C@H](O)c3ccccc3)CC2)nc1)c1oc(N2CCC(c3ccccc3)CC2)nc1C(F)(F)F [Compound 200, (R)—N-(6-(4-(2-hydroxy-2-phenylacetyl)piperazin-1-yl)pyridin-3-yl)-2-(4-phenylpiperidin-1-yl)-4-(trifluoromethyl)oxazole-5-carboxamide]"
10,101 to 500,"CC1CCCN(c2nc(C(F)(F)F)c(C(=O)Nc3ccc(N4CCCN(C(=O)c5cccc(C(=O)O)c5)CC4)nc3)o2)C1 (stereo not shown) [Compound 190, 3-(4-(5-(2-(3-methylpiperidin-1-yl)-4-(trifluoromethyl)oxazole-5-carboxamido)pyridin-2-yl)-1,4-diazepane-1-carbonyl)benzoic acid]"
11,11 to 100,"O=C(Nc1ccc(N2CCN(C(=O)C(O)C(F)(F)F)CC2)nc1)c1oc(N2CCC(c3cccc(Cl)c3)C2)nc1C(F)(F)F (stereo not shown) [Compound 212, 2-(3-(3-chlorophenyl)pyrrolidin-1-yl)-N-(6-(4-(3,3,3-trifluoro-2-hydroxypropanoyl)piperazin-1-yl)pyridin-3-yl)-4-(trifluoromethyl)oxazole-5-carboxamide]"
12,11 to 100,"O=C(Nc1ccc(N2CCN(C(=S)Nc3ccccc3F)CC2)nc1)c1oc(N2CCC(c3ccccc3)CC2)nc1C(F)(F)F [Compound 181, N-(6-(4-(2-fluorophenylcarbamothioyl)piperazin-1-yl)pyridin-3-yl)-2-(4-phenylpiperidin-1-yl)-4-(trifluoromethyl)oxazole-5-carboxamide]"
13,101 to 500,"CC1CCCN(c2nc(C(F)(F)F)c(C(=O)Nc3ccc(N4CCc5c(cccc5C(=O)O)C4)nc3)o2)C1 (stereo not shown) [Compound 168, 2-(5-(2-(3-methylpiperidin-1-yl)-4-(trifluoromethyl)oxazole-5-carboxamido)pyridin-2-yl)-1,2,3,4-tetrahydroisoquinoline-5-carboxylic acid]"
